Experimental data: PubChem BioAssay (NCI)
Where “and” joins values, the source holds several entries; their conditions need not be identical. Equal values may be shown once.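 Protocol summary: plate cells (96-well), add compound at 5 concentrations, incubate 48 h, interpolate endpoints linearly. GI50 is the concentration that inhibits growth by half. TGI: total growth inhibition.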

Key:
Experiment in all cases: NCI tumour cell line growth inhibition, 48 h
SR leukemia = system: SR leukemia
RPMI-8226 leukemia = system: RPMI-8226 leukemia
COLO 205 colon = system: COLO 205 colon
SNB-75 CNS = system: SNB-75 CNS
ACHN renal = system: ACHN renal
CCRF-CEM leukemia = system: CCRF-CEM leukemia
786-0 renal = system: 786-0 renal
SF-295 CNS = system: SF-295 CNS
HS 578T breast = system: HS 578T breast
BT-549 breast = system: BT-549 breast

SMILES | TGI (SR leukemia) [µM] | TGI (RPMI-8226 leukemia) | TGI (COLO 205 colon) [µM] | TGI (SNB-75 CNS) | TGI (ACHN renal) | TGI (CCRF-CEM leukemia) [µM] | TGI (786-0 renal) | TGI (SF-295 CNS) [µM] | GI50 (SR leukemia) [µM] | GI50 (RPMI-8226 leukemia) [µM] | GI50 (COLO 205 colon) [µM] | GI50 (SNB-75 CNS) [µM] | GI50 (HS 578T breast) [µM] | TGI (HS 578T breast) [µM] | GI50 (ACHN renal) [µM] | GI50 (CCRF-CEM leukemia) [µM] | GI50 (786-0 renal) [µM] | GI50 (SF-295 CNS) [µM] | TGI (BT-549 breast) [µM] | GI50 (BT-549 breast) [µM]
COC(=O)c1s/c(=N\C(=S)N(C)C)n(-c2ccc(Cl)cc2)c1C(=O)OC | > 100 | > 100 µM | > 100 | > 10 µM | > 100 µM | > 100 | > 100 µM | > 100 |  |  |  |  |  |  |  |  |  |  |  | 
COc1cc(/C=C\c2cc(OC)c(OC)c(OC)c2)cc(N/C=C\C(=O)c2cc(OC)c(OC)c(OC)c2)c1OC | > 100 | > 100 µM | 5.7 | 4.81 µM | > 100 µM | > 100 | > 100 µM | > 100 | 2.03 | 3.04 | 2.31 | 1.39 | 2.76 | > 100 | 3.99 | 2.93 | 3.76 | 2.4 |  | 
CCc1c(Cl)c(C)cc(O)c1Cl |  | 57.5 µM | > 100 | > 100 µM | 60.6 µM | 91.7 | > 100 µM | > 100 |  |  |  |  |  | 99.7 |  |  |  |  | 42.8 | 
S=c1[nH]c2c(Cl)c(Cl)c(Cl)c(Cl)c2[nH]1 |  | 30.1 µM | 32.3 |  | 40.7 µM | 19.5 | 63.3 µM | 47.1 |  |  |  |  |  | 69.4 |  |  |  |  | 52.4 | 
CC(C)=CCc1cc(O)cc2c1OC(C=C(C)C)C1=C2C(=O)C2=C(C1=O)S(=O)(=O)CCN2 (configuration not stated) |  | 12.2 µM | > 16.7 | 6.39 µM | > 16.7 µM | > 16.7 | > 16.7 µM |  |  | 4.16 | 5.42 | 2.6 | 3.15 | 13 | 6.14 | 5.81 | 5.05 |  | > 16.7 | 5.18
C[Si](C)(C)/C(Br)=C\CCN1C(=O)CCC1=O | > 100 |  | > 100 | > 100 µM | > 100 µM | > 100 | > 100 µM | > 100 |  |  |  |  |  |  |  |  |  |  |  | 
Clc1nc(Cl)nc(Nc2cccc3ccccc23)n1 | 48.3 | > 100 µM | > 100 | > 100 µM | > 100 µM | > 100 | > 100 µM | > 100 | 18.3 | 39.8 | > 100 | > 100 | > 100 | > 100 | 92.5 | 33.4 | > 100 | 64 |  | 
O=C(O)c1ccc(C(=O)O)c2c(C(=O)O)ccc(C(=O)O)c12 | > 100 | > 100 µM | > 100 | > 100 µM | > 100 µM |  | > 100 µM | > 100 |  |  |  |  |  | > 100 |  |  |  |  |  | 
CC(=O)N1CCC(=O)/C(=C/c2ccccc2)C1 | 72.5 | > 100 µM | > 100 | > 100 µM | 56.8 µM |  | 69.6 µM | > 100 |  |  |  |  |  |  |  |  |  |  |  | 
COc1cccc2c1C(=O)c1c(O)c3c(c(O)c1C2=O)C[C@@](O)(/C(C)=N/NC(=O)c1ccc(Cl)cc1)C[C@@H]3OC1CC(N)C(O)C(C)O1 (some centres not stated) |  | 1.47 µM |  | 0.552 µM | 1.43 µM | 2.32 | 1.69 µM | 2.2 |  | 0.216 |  | 0.102 | 0.369 | 2.52 | 0.181 | 0.0903 | 0.249 | 0.236 |  | 
CCOC(=O)/C=C/c1ccc(C#Cc2ccccc2)cc1 | > 100 | > 100 µM | > 100 | 97.1 µM | > 100 µM | > 100 | > 100 µM | > 100 | 10.3 | 54.5 | > 100 | 31.8 | > 100 | > 100 | > 100 | > 100 | > 100 | 55.1 |  | 
C=CCN1CCC23c4c5ccc(O)c4OC2C(=NN=C2CCC4(O)C6Cc7ccc(O)c8c7C4(CCN6CC=C)C2O8)CCC3(O)C1C5 (configuration not stated) |  | > 100 µM | 42.1 | 34.2 µM | 41.2 µM | > 100 | 35.3 µM | 40.9 |  |  |  |  |  |  |  |  |  |  |  | 
[N-]=[N+]=N/C1=C/CCCCC(=O)C1 |  | > 100 µM | > 100 | > 100 µM |  | > 100 | > 100 µM |  |  |  |  |  |  |  |  |  |  |  |  | 
COc1ccc(-c2nsc3c2NC(=O)CC3c2cccc(OC)c2)cc1 (configuration not stated) |  | > 100 µM | 6.92 |  | > 100 µM | > 100 | > 100 µM | 12.4 |  | 1.61 | 0.801 | 1.3 | 1.34 | 16.9 | 4.87 | 2.08 | 12.5 | 1.54 | > 100 | 2.87
C[C@]12CCC(=O)C=C1CC[C@@H]1C2CC[C@]2(C)Nc3[nH]ncc3CC12 (some centres not stated) |  | > 100 µM |  | > 100 µM | > 100 µM | > 100 | > 100 µM | > 100 |  |  |  |  |  |  |  |  |  |  |  | 
COC12OCCN(C)C1=CC(=O)C1=NNC(C)C12 (configuration not stated) |  | > 100 µM | > 100 | > 100 µM |  | > 100 | > 100 µM | > 100 |  |  |  |  |  |  |  |  |  |  |  | 
CCN(CC)CCSc1c2ccccc2nc2c(OC)ccc(OC)c12 | 10.7 |  |  | > 70 µM | > 23.5 µM | > 68.9 | > 20.6 µM | 59.4 |  |  |  |  |  |  |  |  |  |  |  | 
COC(=O)C1=C(C(=O)OC)C2=S(SC3=C2CCCC3)S1 (configuration not stated) |  | 30.1 µM | > 100 | 62.7 µM | > 100 µM | 19.7 | 15.2 µM | > 100 |  |  |  |  |  |  |  |  |  |  |  | 
CS/C(=C(\S)c1ccccc1)c1ccccc1 | > 100 | > 100 µM | > 100 | > 100 µM | > 100 µM |  | > 100 µM | > 100 |  |  |  |  |  |  |  |  |  |  |  | 
O=C1CCC/C=C\C[C@H]2C=CC(=O)/C2=C/C[C@H](C/C=C\CC(F)(F)F)O1 |  | 0.858 µM | 0.726 | 3.22 µM | 0.629 µM | 1.71 | 0.677 µM | 1.13 |  | 0.275 | 0.368 | 0.806 | 1.17 | 9.68 | 0.333 | 0.465 | 0.311 | 0.401 | 0.659 | 0.292
CCOC(=O)c1ccc(N=Nc2cc(C(=O)OCC)ccc2O)cc1 |  | > 100 µM | > 100 |  | > 100 µM | > 100 | > 100 µM |  |  |  |  |  |  |  |  |  |  |  |  | 
O=C1CCC(=O)c2c1c(O)c1ccncc1c2O | 34.7 | 55.5 µM | 20.8 | 34.7 µM | 28.6 µM | 39.4 | 29.1 µM | 36.4 |  |  |  |  |  |  |  |  |  |  |  | 
Cc1cc(N(CCCNc2ccnc3cc(Cl)ccc23)Cc2ccc3c(c2)OCO3)nc(N2CCOCC2)n1 |  | 2.15 µM | 0.802 | 0.626 µM |  | > 100 | 0.907 µM |  |  | 0.33 | 0.269 | 0.204 | 0.288 | 18.6 |  | 0.38 | 0.254 |  | 23.5 | 0.334
COc1ccc(/C(=C\C=C(C#N)C#N)Sc2nc3ccccc3s2)cc1 |  |  | 17.4 |  |  |  | 5.66 µM | 39.9 |  |  | 7.24 |  | 31.2 | > 50 |  |  | 1.7 | 13.6 | 17.5 | 6.51
CC(C)(C)[Si](C)(C)OC1C(=O)C[C@H]2CCCC[C@@H]12 (some centres not stated) |  | > 100 µM | > 100 | > 100 µM | > 100 µM | > 100 | > 100 µM | > 100 |  |  |  |  |  |  |  |  |  |  |  | 
CCCCCCCN=C(N)c1ccc(N2CCN(c3ccc(C(N)=NCCCCCCC)cc3)CC2)cc1 |  | > 100 µM | > 52.6 | 7.67 µM | 24.8 µM | > 100 | > 100 µM | 0.28 |  | 0.785 | 1.54 | 2.75 |  |  | 0.499 | 1.1 | 0.596 | 0.0628 |  | 
COc1ccc(-c2nnc(N3CCN(C(=O)CN4CCN(c5ccccc5)CC4)CC3)nc2-c2ccc(OC)cc2)cc1 |  | 5.16 µM | 57.2 | 48.7 µM | 21.7 µM | > 100 | 29.3 µM | 47.7 |  | 2.06 | 2.57 | 14.4 | 5.15 | 71.5 | 3.92 | 5.19 | 5.37 | 5.83 |  | 
Cc1ccc(S(=O)OCc2c(C)c(C)c(COS(=O)c3ccc(C)cc3)c(C)c2C)cc1 (configuration not stated) | > 100 | > 100 µM | > 100 | > 100 µM | > 100 µM |  | > 100 µM | > 100 |  |  |  |  |  |  |  |  |  |  |  | 
Cn1cc(-c2csc(-c3c[nH]c4ccc(Br)cc34)n2)c2cnccc21 |  | 4.8 µM |  |  |  | 1.86 | 3.4 µM |  |  | 2.13 |  |  | 2.47 | 5 |  | 0.422 | 1.63 |  | > 100 | 26.3
C/C(=N\NC(=S)N1CCCCCC1)c1ccccn1 |  | 0.321 µM and 0.132 µM | 0.0286 | 1.18 µM and 2.54 µM | 5.45 µM and 2.73 µM |  | 2.17 µM and 3.12 µM | 2.3 |  |  |  | 0.277 |  | 3.85 |  |  | 0.0992 | 0.0137 | 1.76 | 
